Measured values reported in PubChem BioAssay (NCI).
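In this assay, cells in 96-well plates receive the compound at five concentrations for 48 hours. Endpoints are linearly interpolated between the surrounding concentrations. The concentration for full growth arrest is given as TGI.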

Columns and labels:
Experiment in all cases: growth of human tumour cells (NCI), 48 h
[1] = tested on: NCI/ADR-RES ovarian
[2] = tested on: OVCAR-5 ovarian
[3] = tested on: EKVX NSCLC
[4] = tested on: KM12 colon
[5] = tested on: SK-MEL-28 melanoma
[6] = tested on: K-562 leukemia
[7] = tested on: 786-0 renal
[8] = tested on: PC-3 prostate
[9] = tested on: IGROV1 ovarian
[10] = tested on: SF-268 CNS
[11] = tested on: SF-295 CNS
[12] = tested on: SK-OV-3 ovarian

Row | Compound | TGI [1] [µM] | TGI [2] [µM] | TGI [3] [µM] | TGI [4] [µM] | TGI [5] [µM] | TGI [6] [µM] | TGI [7] [µM] | TGI [8] [µM] | TGI [9] [µM] | TGI [10] [µM] | TGI [11] [µM] | TGI [12] [µM]
1 | COC(=O)c1ccc2n1C1CC3CC(CC2C3)C1 | > 100 | > 100 | > 100 | > 100 | > 100 | > 100 | > 100 | > 100 | > 100 | > 100 | > 100 | > 100
2 | Oc1ccc2c(c1)OCC(O)(c1ccccc1O)C2 (centres undefined) | > 100 | > 100 | > 100 | > 100 | > 100 | > 100 | > 100 | > 100 | > 100 | > 100 | > 100 | > 100
3 | CC1=C/C(=N/N2C(=O)/C(=C/c3ccc(Cl)cc3)N=C2c2ccccc2)CC(C)(C)C1 | > 100 | > 100 | > 100 | > 100 | > 100 | > 100 | > 100 | > 100 | > 100 | > 100 | > 100 | > 100
4 | CCOC(=O)c1c(C)n(Cc2ccccc2)c2c1cc(O)c1[nH]c3c(c12)CCCC3 | 18.5 | 20.1 | 8.12 | 13.2 | 18.7 | 10.9 | 30.2 | 9.92 | 15.6 | 5.16 | 11.5 | 24.5
5 | N[C@@H]1c2c(Br)sc(Br)c2[C@H](O)[C@@H]1O | > 100 | > 100 | > 100 | > 100 | > 100 | > 100 | > 100 | > 100 | > 100 | > 100 | > 100 | > 100
6 | NC1CC2C3CCC2C1C3=O (centres undefined) | > 100 | > 100 | > 100 | > 100 | > 100 | > 100 | > 100 | > 100 | > 100 | > 100 | > 100 | > 100
7 | Oc1ccc(-c2nc3cc(C(F)(F)F)ccc3n2CC2CCCN3CCCCC23)cc1 (centres undefined) | 32.9 | 67 | 31 | 29.3 | 29.6 | 30.3 | 30.7 | 27.1 | 26 | 28.1 | 28.4 | 27.6
8 | CCCCCCCCCCCCCCCCCCNc1ccn(C2OC(COP(=O)(O)O)C(O)C2O)c(=O)n1 (centres undefined) | > 100 | > 100 | > 100 | > 100 | > 100 | > 100 | > 100 | > 100 | > 100 | > 100 | > 100 | > 100
9 | COC(=O)C1=NN2c3ccccc3C(=O)OCCC2C1 (centres undefined) | > 100 | > 100 | > 100 | > 100 | > 100 | > 100 | > 100 | > 100 | > 100 | > 100 | > 100 | > 100
10 | O=C(O)c1c(CC(Cc2ccc3c(c2)CCCC3)C(=O)O)ccc2c1CCCC2 (centres undefined) | > 100 | > 100 | > 100 | > 100 | > 100 | > 100 | > 100 | > 100 | > 100 | > 100 | > 100 | > 100
11 | Cc1cc(C)c2c(n1)S(=O)(=O)N(CCCN1CCN(c3cccc(C(F)(F)F)c3)CC1)/C(=C(\O)c1ccccc1)C2=O | 22.4 | 39 | 37.6 | 27 | 57.5 | > 100 | 16.5 | > 100 | 20.5 | > 100 | 19.7 | 84.7
12 | O=[N+]([O-])CC(SCc1ccccc1)c1ccc2c(c1)OCO2 (centres undefined) | 28.8 | 30.2 | 39.5 | 19.1 | 17 | 4.19 | 3.42 | 33.1 | 12.7 | > 61.2 | 23.1 | 28.6
